Measured values taken from patent US20230340149A1, “METHODS OF TREATMENT OF INFLAMMATORY BOWEL DISEASES” (INSERM (INSTITUT NATIONAL DE LA SANTÉ ET DE LA RECHERCHE …, priority 2020, published 2023).
Where two headings read alike, the source gives them in different places.

What was measured:
[1] = in vivo, cited from earlier work
[2] = cited from earlier work
[3] = tested on: thrombin activity in human colonic tissues from CD patients; assay: In situ zymography of thrombin activity on frozen colonic tissue sections; assay type: biochemical; settings: CD patient colonic cryo-sections, 10 μM, data not shown
[4] = tested on: TNBS-induced colitis in rats; assay: TNBS-induced colitis in rats, daily intracolonic treatment; assay type: in vivo, rat; settings: vs vehicle
[5] = highly basic guanidine; cited from earlier work
[6] = tested on: adherent-invasive Escherichia coli (strain LF82) biofilms; assay: Adhesion and invasion of bacteria from thrombin-exposed E. coli LF82 biofilms on Caco2 monolayers; assay type: cell-based
Protocol: Panel B) Biofilms of adherent-invasive Escherichia coli (strain LF82) were formed into the Calgary Biofilm Device (Innovotech, Canada). After 48 hours of incubation (37° C., anaerobic environment), biofilms were exposed to various concentrations of human thrombin (0, 10, 100 to 1000 milliunit/ml). After 24 hours, dispersed bacteria from thrombin-treated biofilms were collected and apically exposed to human epithelial monolayers on 12-wells plates (Caco2, ATCC HB37). Bacterial adhesion to epithelial surface was assessed. Briefly, after 90 minutes of co-culture, cells were vigorously washed in PBS, and lyzed in Triton X100 0.1% for 10 minutes, after which live cell bacteria were counted on Columbia blood agar (CFU were counted after 24 hours incubation of plates at 37° C.). Data represent fold change CFU/ml count compared to untreated controls (=1). ANOVA with Fisher's LSD test, *P<0.05
Panel C) Mucosa-associated microbiota was extracted from 3 healthy human colon biopsies (collected in Toulouse Hospital under ethic approval CODECOH Colic-DC2015-2443), under anaerobic condition, and were seeded into the Calgary Biofilm Device (Innovotech, Canada) to develop a multispecies biofilm. After 48 hours of incubation (37° C., anaerobic environment), biofilms were exposed to human thrombin (0 and 100 milliunit/ml). […] Bacterial invasion into epithelial cells was assessed. […]

mouse colon = assay: Daily intracolonic administration of thrombin in mice, inflammation parameters; assay type: in vivo
Protocol: Thrombin (specific activity 2000 NIH units/mg protein, T6884, Sigma) was administered daily for 10-days intracolonically daily (5 U/mouse in 50 μl in saline, 0.9% NaCl) under light anaesthesia (3% isoflurane) in PAR-1^−/−, PAR4^−/−, littermates and in mice purchased from Janvier laboratories. Controls received heat-inactivated thrombin (same dose, 10 minutes at 100° C.) or saline alone. After intracolonic instillation, mice were kept upside-down for 2-min to allow colonic diffusion of the administered solution. After 10-days, mice were sacrificed by cervical dislocation and inflammation parameters were measured.
TNBS colitis was induced in fasted rats as previously described^20,21. Animals were housed in ventilated cages, acclimatized for one week before experiment started and beddings were mixed twice. Briefly, TNBS was prepared at a final concentration of 120 mg/ml in 50% ethanol in saline and was kept in the dark before use. A catheter was inserted at 8 cm from the anus and 30 mg of the TNBS solution was instilled through the catheter into the lumen in a final volume of 250 μl/rat. For TNBS colitis induction in mice, fasted animals were lightly anesthetized with halothane. A polyethylene catheter was inserted intracolonically 4 cm from the anus and TNBS (2 mg/mouse in 100 μl) dissolved in a solution of saline plus 40% ethanol was pushed into the catheter. At time of the sacrifice, colonic tissues were harvested. Before opening the colon, luminal washes with a PBS solution were performed in order to measure thrombin activity in those washes. Colons were then cut opened. Macroscopic damage scores were evaluated as previously described^9, by a skilled observer unaware of the treatments. When observed, the following parameters were given score of 1: hemorrhage, edema, stricture, ulceration, fecal blood, mucus, and diarrhea. Erythema was scored a maximum of 2 depending on the length of the area being affected (0, absent; 1, less than 1 cm; and 2, more than 1 cm). Adhesion was scored based on its severity (0, absent; 1, moderate; and 2, severe). Colon thickness was measured using an electronic caliper (Mitutoyo, Mississauga, Canada, resolution 0.01 mm). MPO activity was measured as an index of granulocyte infiltration as previously described. Tissue samples were homogenized in a solution of 0.5% hexadecyltrimethylammonium bromide dissolved in phosphate buffer solution (pH 6.0) for 1 min. Homogenized tissues were centrifuged at 13 000 g for 2 min. Supernatants were added to a buffer supplemented with 1% hydrogen peroxide, and O-dianisidine dihydrochloride solution. Optical density readings were taken for 1 min at 30 s intervals at 450 nm^22. Results were normalized to total protein content and expressed as OD450 nm/min/μg/ml. For bacterial translocation assays, mesenteric lymph nodes were collected aseptically, weighed and homogenized before being plated at 37° C. in Columbia blood agar (BD Biosciences) for 24 h for aerobes, and for 48 h for anaerobes left in anaerobic jars^9. For permeability assays, mice received orally 4-kDa FITC Dextran (Sigma Aldrich) at the dose of 600 mg/kg body weight in PBS, and blood was collected 1-h after. Fluorescence for FITC-Dextran presence in serum was measured by spectrophotometry (excitation 485 nm, emission 528 nm)^23. Apoptosis was measured by TUNEL (terminal deoxynucleotidyl transferase dUTP nick end labeling) staining in mouse colonic tissues as previously described^24,25. Five random fields were captured per tissue section and percent of apoptotic cells was determined by an observer unaware of the treatments.

[7] = tested on: human mucosa-associated microbiota biofilms; assay: Adhesion of bacteria dispersed from thrombin-exposed human mucosal biofilms to Caco2 monolayers; assay type: cell-based; settings: biofilms exposed to 1 U/ml
Protocol: Methods for FIG. 7. Panel A: Mucosa-associated microbiota was extracted from 4 healthy human colon biopsies (collected in Toulouse Hospital under ethic approval CODECOH Colic-DC2015-2443), under anaerobic condition, and were seeded into the Calgary Biofilm Device (Innovotech, Canada) to develop a multispecies biofilm. After 48 hours of incubation (37° C., anaerobic environment), biofilms were exposed to various concentrations of human thrombin (0, 10, 100 and 1000 milliunit/ml). After 24 hours, dispersed bacteria from thrombin-treated biofilms were collected and apically exposed to human epithelial monolayers on 12-wells plates (Caco2, ATCC HB37). Bacterial adhesion to epithelial surface was assessed. Briefly, after 90 minutes of co-culture, cells were vigorously washed in PBS, and lyzed in Triton X100 0.1% for 10 minutes, after which live cell bacteria were counted on Columbia blood agar (CFU were counted after 24 hours incubation of plates at 37° C.). Data represent fold change CFU/ml count compared to untreated controls (=1). ANOVA with Fisher's LSD test, *P<0.05, ***P<0.001.

cytochrome P450 enzymes = settings: cited from earlier work
IBD patients = settings: in vivo; cited from earlier work
[8] = HAT 1, 2, 3 studies, HIT, versus historical controls
[9] = 50 μl of 100 U/ml per mouse daily for 10 days, vs vehicle (saline)

Which results are given for hirudin?
distributed in the extravascular compartment [1]: 80%; found in the plasma [1]: 20%; incidence of bleeding compared with heparin ([2]; meta-analysis of 11 randomized trials, acute coronary syndrome): significantly higher incidence of bleeding

Which results are given for desirudin?
bleeding rates versus heparin ([2]; in vivo): similar; rate of proximal deep vein thrombosis ([2]; in vivo): reduced; prevention of VTE ([2]; versus enoxaparin or unfractionated heparin): superior

Which results are given for [H]/N=C(/N)c1ccc(NCc2nc3cc(C(=O)N(CCC(=O)O)c4ccccn4)ccc3n2C)cc1 [Dabigatran]?
oral availability / oral activity [1]: not orally active; thrombin activity detected in tissue (VPR-AMC substrate) [3]: inhibited; MPO activity ([4]; 100 μl 5 μM): reducing significantly; colon thickness ([4]; 100 μl 5 μM): reducing significantly; macroscopic damage score ([4]; 100 μl 5 μM): reducing significantly; weight loss ([4]; 100 μl 5 μM): reducing significantly; blood in the feces (fecal bleeding score) [4]: reduced significantly

Which hepatic toxicity ([2]; treatment for over 35 days) does the source give for CCOC(=O)CN[C@@H](C(=O)N1CC[C@H]1C(=O)NCc1ccc(/C(N)=N\O)cc1)C1CCCCC1 [Ximelagatran] here?
The hepatic toxicity was “linked with the risk of hepatic toxicity”.

What does the source list for lepirudin?
risk for major bleeding [2, 8]: increased; risk of new thrombosis [2, 8]: decreased

With N=C(N)c1ccc(CNC(=O)[C@@H]2CCN2C(=O)[C@H](NCC(=O)O)C2CCCCC2)cc1 [melagatran] as the molecule, how does the “oral availability / oral activity” value [1] read?
Its value is “poorly orally available”.

For CC1CNc2c(cccc2S(=O)(=O)N[C@@H](CCCNC(=N)N)C(=O)N2CC[C@@H](C)C[C@@H]2C(=O)O)C1 (some centres unmarked) [Argatroban], which plasma half-life [1] is on record?
Its plasma half-life is “approximately 45 minutes”.

What about the pKa [5] of the same molecule?
Its pKa is 13.

With thrombin as the molecule, how does the “adhesion to human intestinal epithelium monolayers” value ([6]; biofilms exposed to 0.01 U/ml) read?
Its value is “adhered significantly more”.

And the “ability to invade human intestinal epithelium monolayers” value ([6]; biofilms exposed to 0.1 U/ml)?
The value was “significantly increased”.

And the “translocation of aerobic bacteria into mesenteric lymph nodes” value (mouse colon; 50 μl of 100 U/ml per mouse daily for 10 days)?
Its value is “caused the translocation”.

And the colon thickness (mouse colon; [9])?
The colon thickness was “significant increase”.

What about the macroscopic damage (mouse colon; [9]) of the same molecule?
Its macroscopic damage is “caused macroscopic damage”.

And the “damage score, wall thickness and MPO activity” value (mouse colon; PAR4-deficient mice)?
Its value is “significantly reduced”.

What about the “macroscopic damage, colonic wall thickness and MPO activity” value (mouse colon; PAR-1-deficient mice) of the same molecule?
Its value is “still exhibited significant”.

What about the “translocation of anaerobic bacteria” value (mouse colon; vs vehicle or boiled thrombin) of the same molecule?
Its value is “not significantly different”.

What about the “potential to adhere to human intestinal epithelium monolayers” value [7] of the same molecule?
The value was “increased”.

With CCCCCCOC(=O)NC(=N)c1ccc(NCc2nc3cc(C(=O)N(CCC(=O)OCC)c4ccccn4)ccc3n2C)cc1 [dabigatran etexilate] as the molecule, how does the “eliminated by the kidneys” value [1] read?
Its value is greater than 80%.

What about the plasma half-life [1] of the same molecule?
The plasma half-life was “approximately 12 hours”.

And the hepatic toxicity ([2]; long-term treatment)?
Its hepatic toxicity is “has not been linked with hepatic toxicity”.

And the “interaction with cytochrome P450 enzymes” value (cytochrome P450 enzymes)?
The value was “lacks interaction”.

For bivalirudin, which “excreted by the kidneys” value [1] is on record?
Its value is “about 20%”.

What about the “rate of bleeding compared to heparin” value ([2]; acute coronary syndrome) of the same molecule?
The value was “lower rate of bleeding”.

For heparin, which “benefit of treatment in IBD patients” value (IBD patients) is on record?
Its value is “some benefits”.
